For three molecules, melting point results are on record in patent US20050075334A1, “Novel compounds” (priority 2001, published 2005).

By melting point is commonly meant the temperature of the solid-liquid transition.

Some results are limits rather than exact numbers.

As for `COC(=O)c1cccc2[nH]c(Sc3cccc4c(=O)cc[nH]c34)nc12` [Example 3, 2-(4-Oxo-1,4-dihydro-quinolin-8-ylsulfanyl)-1H-benzoimidazole-4-carboxylic Acid Methyl Ester], the melting point is > 250 °C. The same measure for `N#Cc1c(Cl)ccc2[nH]c(Sc3cccc4c(=O)cc[nH]c34)nc12` [Example 8, 5-Chloro-2-[(4-oxo-1,4-dihydroquinolin-8-yl)thio]-1H-benzimidazole-4-carbonitrile]: 376 °C (dec.); for `C[S+]([O-])c1c[nH]c2c(Sc3nc4cc(Cl)ccc4[nH]3)ccc([N+](=O)[O-])c12` (stereo not drawn) [Example 16, 5-Chloro-2-([3-(methylsulfinyl)-4-nitro-1H-indol-7-yl]thio}-1H-benzimidazole]: 243 to 246 °C.
